Assay results: US4994477A, “Heterocyclic renin inhibitors” (Abbott Laboratories, priority 1988, dated 1991)

Molecular target: T1, human renal renin (Homo sapiens, UniProt P00797)
T1 construct: human renal renin, free from acid proteolytic activity; from tissue; host or cells: human kidney (from the word 'renal')
T1 sequence (P00797 67-406): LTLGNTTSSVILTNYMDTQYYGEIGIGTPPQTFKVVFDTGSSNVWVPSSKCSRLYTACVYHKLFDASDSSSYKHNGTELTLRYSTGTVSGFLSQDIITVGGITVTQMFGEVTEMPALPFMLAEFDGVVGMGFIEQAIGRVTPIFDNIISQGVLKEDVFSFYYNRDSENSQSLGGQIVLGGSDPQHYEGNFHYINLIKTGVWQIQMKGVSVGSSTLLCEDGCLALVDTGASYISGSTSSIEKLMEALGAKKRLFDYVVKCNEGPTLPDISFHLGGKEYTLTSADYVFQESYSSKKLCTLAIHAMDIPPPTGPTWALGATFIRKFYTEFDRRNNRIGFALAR
Assay: inhibition of human renal renin in vitro, angiotensin I formed measured by radioimmunoassay
Assay type: biochemical
Conditions: human angiotensinogen substrate, 37 degrees C, pH 6.0
Procedure: At the end of the incubation, the amount of angiotensin I formed is measured by radioimmunoassay and the molar concentration required to cause 50% inhibition, expressed as the IC50, is calculated.

Row | Structure (SMILES) | IC50 [nM]
1 | CC(C)C[C@H](O)[C@H](O)[C@H](CC1CCCCC1)NC(=O)[C@H](CCC(=O)O)NC(=O)c1cc2ccccc2[nH]1 [Example 38, N-(Indolyl-2-carbonyl)-Glu Amide of 2(S)-Amino-1-cyclohexyl-3(R),4(S)-dihydroxy-6-methylheptane] | 130
2 | CC1=C(C(=O)N[C@@H](Cc2c[nH]cn2)C(=O)N[C@@H](CC2CCCCC2)[C@@H](O)[C@@H](O)CC(C)C)Cc2ccccc21 [Example 42, N-(3-Methylindenyl-2-carbonyl)-His Amide of 2(S)-Amino-1-cyclohexyl-3(R),4(S)-dihydroxy-6-methylheptane] | 200
3 | CC(C)C[C@H](O)[C@H](O)[C@H](CC1CCCCC1)NC(=O)[C@H](Cc1c[nH]cn1)NC(=O)c1nc2ccccc2s1 [Example 45, N-(Benzothiazolyl-2-carbonyl)-His Amide of 2(S)-Amino-1-cyclohexyl-3(R),4(S)-dihydroxy-6-methylheptane] | 31
4 | CCCC[C@H](NC(=O)c1cc2ccccc2[nH]1)C(=O)N[C@@H](CC1CCCCC1)[C@@H](O)[C@@H](O)CC(C)C [Example 40, N-(Indolyl-2-carbonyl)-Nle Amide of 2(S)-Amino-1-cyclohexyl-3(R),4(S)-dihydroxy-6-methylheptane] | 15
5 | CCN1C[C@@H]([C@H](O)[C@H](CC2CCCCC2)NC(=O)[C@H](Cc2c[nH]cn2)N2Cc3c([nH]c4ccccc34)C2=O)OC1=O [Example 59, (1'S,2"S,3"R,5'"S)-2-[1-[N-[1-Cyclohexyl-3-hydroxy-3-(3-ethyloxazolidin-2-on-5-yl)-2-propyl]carbamoyl]-2-(4-imidazolyl)ethyl]-1,2,3,4-tetrahydropyrrolo[3,4-b]indol-3-one] | 19
6 | CC(C)C[C@H](O)[C@H](O)[C@H](CC1CCCCC1)NC(=O)[C@H](Cc1c[nH]cn1)NC(=O)c1cc2ccccc2[nH]1 [Example 35, N-(Indolyl-2-carbonyl)-His Amide of 2(S)-Amino-1-cyclohexyl-3(R),4'(S)-dihydroxy-6-methylheptane] | 3.3
7 | CCN1C[C@@H]([C@H](O)[C@H](CC2CCCCC2)NC(=O)[C@H](Cc2c[nH]cn2)NC(=O)c2cc3ccccc3[nH]2)OC1=O [Example 51, N-(Indolyl-2-carbonyl)-His-Amide of (2'S,1'R,5S)-3-Ethyl-5-(1'-hydroxy-2'-amino-3'-cyclohexylpropyl)oxazolidin-2one] | 12
8 | CC(C)C[C@H](O)[C@H](O)[C@H](CC1CCCCC1)NC(=O)[C@H](Cc1c[nH]cn1)NC(=O)c1cc2ccccc2o1 [Example 43, N-(Benzofuranyl-2-carbonyl)-His Amide of 2(S)-Amino-1-cyclohexyl-3(R),4(S)-dihydroxy-6-methylheptane] | 10
9 | CC(C)C[C@H](O)[C@H](O)[C@H](CC1CCCCC1)NC(=O)CN1Cc2c([nH]c3ccccc23)C1=O [Example 75, (2'S,3'R,4'S)-2-[N-(1-cyclohexyl-3,4-dihydroxy-6-methyl-2-heptyl)carbamoyl]methyl-1,2,3,4-tetrahydropyrrolo[3,4-b]indol-3-one] | 200
10 | CC(C)C[C@H](O)[C@H](O)[C@H](CC1CCCCC1)NC(=O)[C@H](Cc1c[nH]cn1)NC(=O)c1cc2ccccc2n1C [Example 41, N-(1-Methylindolyl-2-carbonyl)-His Amide of 2(S)-Amino-1-cyclohexyl-3(R),4(S)-dihydroxy6-methylheptane] | 160
11 | CC(C)C[C@H](O)[C@H](O)[C@H](CC1CCCCC1)NC(=O)[C@H](CC(C)C)N1Cc2c([nH]c3ccccc23)C1=O [Example 70, (1'S,2"S,3"R,4"S)-2-[1-[N-(1-cyclohexyl-3,4-dihydroxy-6-methyl-2-heptyl)carbamoyl]-3-methylbutyl]-1,2,3,4-tetrahydropyrrolo[3,4-b]indol-3-one] | 100
12 | CC(C)C[C@H](O)[C@H](O)[C@H](CC1CCCCC1)NC(=O)[C@H](CCC(=O)OCc1ccccc1)NC(=O)c1cc2ccccc2[nH]1 [Example 37, N-(Indolyl-2-carbonyl)-γ-benzyl-Glu Amide of 2(S)-Amino-1-cyclohexyl-3(R),4(S)-dihydroxy-6-methylheptane] | 130
13 | CC(C)C[C@H](O)[C@H](O)[C@H](CC1CCCCC1)NC(=O)[C@H](Cc1c[nH]cn1)N1Cc2c([nH]c3ccccc23)C1=O [Example 58, (1'S,2"S,3"R,4"S)-2-[1-[N-(1-Cyclohexyl-3,4-dihydroxy-6-methyl-2-heptyl)carbamoyl]-2-(4-imidazolyl)ethyl]-1,2,3,4-tetrahydropyrrolo[3,4-b]indol-3-one] | 8.2

Continued, values first:

Row | IC50 [nM] | Structure (SMILES)
14 | 32 | CC(C)C[C@H](O)[C@H](O)[C@H](CC1CCCCC1)NC(=O)[C@H](Cc1c[nH]cn1)NC(=O)c1ccc2ccccc2c1 [Example 151, N-(2-Napthoyl)-His Amide of 2(S)-Amino-1-cyclohexyl-3(R),4(S)-dihydroxy-6-methylheptane]
15 | 44 | CCCCC(C(=O)N[C@@H](CC1CCCCC1)[C@@H](O)[C@@H](O)CC(C)C)N1Cc2c([nH]c3ccccc23)C1=O (stereo partly drawn) [Example 93, (1'RS,2"S,3"R,4"S)-2-[1-[N-(1-Cyclohexyl-3,4-dihydroxy-6-methyl-2-heptyl)carbamoyl]pentyl]-1,2,3,4-tetrahydropyrrolo[3,4-b]indol-3-one]
16 | 66 | CCCC[C@@H](C(=O)N[C@@H](CC1CCCCC1)[C@@H](O)[C@@H](O)CC(C)C)N1CCc2c([nH]c3ccccc23)C1=O [Example 96]
17 | 67 | CC(C)C[C@H](O)[C@H](O)[C@H](CC1CCCCC1)NC(=O)[C@H](Cc1c[nH]cn1)N1CCc2c([nH]c3ccccc23)C1=O [Example 101, (1'S,2"S,3"R,4"S)-2-[1-[N-(1-Cyclohexyl-3,4-dihydroxy-6-methyl-2-heptyl)carbamoyl]-2-(4-imidazolyl)ethyl]-1,2,3,4-tetrahydro-9H-pyrido[3,4-b]indol-1-one]
18 | 89 | CCN1C[C@@H]([C@H](O)[C@H](CC2CCCCC2)NC(=O)C(Cc2cc[nH]n2)N2Cc3c([nH]c4ccccc34)C2=O)OC1=O (stereo partly drawn) [Example 89, (1'RS,2"S,3"R,5"'S)-2-[1-[N-[1-Cyclohexyl-3-hydroxy-3-(3-ethyloxazolidin-2-on-5-yl)-2-propyl]carbamoyl]-2-(3-pyrazolyl)ethyl]-1,2,3,4-tetrahydropyrrolo[3,4-b]indol-3-one]
19 | 36 | CCN1C[C@@H]([C@H](O)[C@H](CC2CCCCC2)NC(=O)[C@H](Cc2c[nH]cn2)NC(=O)c2ccc3ccccc3n2)OC1=O [Example 109, N-(Quinolinyl-2-carbonyl)-His Amide of (2'S,1'R,5S)-3-Ethyl-5-(1-hydroxy-2-amino-3-cyclohexylpropyl)oxazolidin-2-one]
20 | 8.7 | CC(C)C[C@H](O)[C@H](O)[C@H](CC1CCCCC1)NC(=O)[C@H](Cc1c[nH]cn1)NC(=O)c1ccc2ccccc2n1 [Example 110, N-(Quinolinyl-2-carbonyl)-His Amide of 2(S)-Amino-1-cyclohexyl-3(R),4(S)-dihydroxy-6-methylheptane]
21 | 5 | CC(C)C[C@H](O)[C@H](O)[C@H](CC1CCCCC1)NC(=O)[C@H](Cc1cscn1)N1Cc2c([nH]c3ccccc23)C1=O [Example 81, (1'S,2"S,3"R,4"S)-2-[1-[N-(1-cyclohexyl-3,4-dihydroxy-6-methyl-2-heptyl)carbamoyl]-2-(4-thiazolyl)ethyl]-1,2,3,4-tetrahydropyrrolo[3,4-b]indol-3-one]
22 | 9.5 | CC(C)C[C@H](O)[C@H](O)[C@H](CC1CCCCC1)NC(=O)[C@H](Cc1cc[nH]n1)N1Cc2c([nH]c3ccccc23)C1=O [Example 87, (1'S,2"S,3"R,4"S)-2-[1-[N-(1-Cyclohexyl-3,4-dihydroxy-6-methyl-2-heptyl)carbamoyl]-2-(3-pyrazolyl)ethyl]-1,2,3,4-tetrahydropyrrolo[3,4-b]indol-3-one]
23 | 7000 | O=C(N[C@@H](Cc1c[nH]cn1)C(=O)NCC(O)CO)c1[nH]c2ccccc2c1CCC=CC1CCCCC1 (stereo partly shown) [Example 127, N-[3-(4-Cyclohexylbut-3-enyl)indolyl-2-carbonyl]-His Amide of 3-Amino-1,2-propanediol]
24 | 28 | CCN1C[C@@H]([C@H](O)[C@H](CC2CCCCC2)NC(=O)C(Cc2cscn2)N2Cc3c([nH]c4ccccc34)C2=O)OC1=O (stereo partly drawn) [Example 88, (1'RS,2"S,3"R,5"'S)-2-[1-[N-[1-Cyclohexyl-3-hydroxy-3-(3-ethyloxazolidin-2-on-5-yl)-2-propyl]carbamoyl]-2-(4-thiazolyl)ethyl]-1,2,3,4-tetrahydropyrrolo[3,4-b]indol-3-one]
25 | 63 | CC(C)C[C@H](O)[C@H](O)[C@H](CC1CCCCC1)NC(=O)[C@H](Cc1c[nH]cn1)NC(=O)N1CCc2ccccc2C1 [Example 114, N-(1,2,3,4-Tetrahydroisoquinolinyl-2-carbonyl)-His Amide of 2(S)-Amino-1-cyclohexyl-3(R),4(S)-dihydroxy-6-methylheptane]
26 | 27 | COCOC[C@H](NC(=O)c1cc2ccccc2[nH]1)C(=O)N[C@@H](CC1CCCCC1)[C@@H](O)[C@@H](O)CC(C)C [Example 150, N-(Indolyl-2-carbonyl)-(O-methoxymethyl)Ser Amide of 2(S)-Amino-1-cyclohexyl-3(R),4(S)-dihydroxy-6-methylheptane]
27 | 10000 | O=C(N[C@@H](Cc1c[nH]cn1)C(=O)NCC(O)CO)c1[nH]c2ccccc2c1CCc1ccccc1 (stereo partly shown) [Example 130, [3-(2-Phenylethyl)indolyl-2-carbonyl]-His Amide of 3-Amino-1,2-propanediol]
28 | 3800 | O=C(N[C@@H](Cc1c[nH]cn1)C(=O)NCC(O)CO)c1[nH]c2ccccc2c1CCCC1CCCCC1 (stereo partly shown) [Example 125, N-[3-(3-Cyclohexylpropyl)indolyl-2-carbonyl]-His Amide of 3-Amino-1,2-propanediol]
